Data published in US20210308134A1, “TREATMENT OF EGFR-MUTANT CANCER” (BLUEPRINT MEDICINES CORPORATION, priority 2018, published 2021).

How the values were obtained:
[1] = test system: MGH134^CCDC6-RET cells (EGFR L858R/T790M)
Procedure: (§1) PC9 and MGH134 cells expressing the CCDC6-RET gene fusion or empty vector (EV) were treated with 1 μM osimertinib or vehicle (VEH) and cell proliferation determined over the course of five days (ratio compared to the beginning of treatment). Data shown are the mean±s.e.m. of three independent biological replicates.
(§2) Data are shown as a percentage of vehicle treated control and are the mean±s.e.m of three independent biological replicates.
(§3) For drug dose-response assays, cells were seeded into 96-well plates 24 hours before addition of drug. Cell proliferation was determined by CellTiter-Glo assay (Promega) 72-120 hours after adding drug, using standard protocols. For time-course experiments, multiple plates were seeded and drugged in identical fashion, and at the indicated time points, the plates were frozen at −80° C.; all plates in an experiment were developed with CellTiter-Glo simultaneously. Luminescence was measured with SpectraMax i3x Multi-Mode Microplate Reader (Molecular Devices).
(§4) To determine whether CCDC6-RET expression is sufficient to cause acquired drug resistance, CCDC6-RET fusion expressing cell line models were generated by lentiviral infection of PC9 (EGFR del19) and MGH134 (EGFR L858R/T790M) cells (FIG. 2).

[2] = test system: RET, ERK1/2 and AKT phosphorylation in MGH134^CCDC6-RET cells; assay: Western blot of downstream signaling; assay type: cell-based; settings: EGFR inhibitor alone (1 μM osimertinib), 6 hours
Procedure: FIG. 4B is a western blot for MGH134^EV and MGH134^CCDC6-RET cells treated with 1 μM osimertinib, cabozantinib, and Compound 1 or combinations thereof for 6 hours and harvested for western blotting with the indicated antibodies.
(§5) Afatinib, osimertinib, and cabozantinib were purchased from Selleck Chemicals and resuspended in DMSO. Phospho-EGFR (Y1068), EGFR, pBRAF (Ser445), RET, pAKT (Ser473), AKT, pMEK1/2 (Ser217/221), MEK1/2, pERK1/2 (Thr202/204), ERK1/2, and Actin antibodies were purchased from Cell Signaling Technology. pRET (Y1062) antibody was obtained from Abcam.

[3] = test system: PC9 parental cells (EV); assay: Cell proliferation (CellTiter-Glo); assay type: cell-based; settings: 1 μM osimertinib, over five days
[4] = test system: PC9^CCDC6-RET cells (EGFR del19); assay: Cell proliferation / viability (CellTiter-Glo); assay type: cell-based
Procedure: as §1, §2, §2, §3, §4

[5] = test system: RET, ERK1/2 and AKT phosphorylation in PC9^CCDC6-RET cells; assay: Western blot of downstream signaling; assay type: cell-based; settings: 6 hours
Procedure: FIG. 4A is a western blot for PC9^EV and PC9^CCDC6-RET cells treated with 100 nM afatinib, 1 μM osimertinib, Compound 1, or combinations thereof for 6 hours and harvested for western blotting with the antibodies.
FIG. 5A is a western blot for PC^9V and PC9^CCDC6-RET cells treated with 100 nM afatinib, 1 μM osimertinib, cabozanitinib, or combinations thereof for 6 hours and harvested for western blot analysis.
as §5

[6] = test system: MGH134 parental cells (EV); assay: Cell proliferation (CellTiter-Glo); assay type: cell-based; settings: 1 μM osimertinib, over five days
[7] = test system: RET-driven models; settings: several RET-driven models; cited from earlier work
[8] = test system: NSCLC patients with RET-alterations; settings: Subbiah et al. 2018; cited from earlier work
[9] = test system: RET oncogenic mutants; settings: cellular systems; cited from earlier work
[10] = 1 μM osimertinib, over five days

SMILES	proliferation rate ([1]; 1 μM osimertinib vs vehicle)	cell proliferation [1, 10]	RET, ERK1/2, and AKT phosphorylation [2]	cell proliferation [3]	proliferation rate ([4]; 1 μM osimertinib vs vehicle)	cell proliferation [4, 10]	RET, ERK1/2, and AKT phosphorylation ([5]; 100 nM afatinib or 1 μM osimertinib alone)	cell proliferation [6]	antitumor efficacy [7]	clinical responses [8]	off-target toxicity [8]	RET phosphorylation ([5]; Compound 1 alone)	downstream ERK or AKT phosphorylation ([5]; Compound 1 alone)	potency of inhibition of kinase activity [9]
C=CC(=O)Nc1cc(Nc2nccc(-c3cn(C)c4ccccc34)n2)c(OC)cc1N(C)CCN(C)C [osimertinib]	decreased	continued to proliferate	retained	net decrease in cell viability	decreased	continued to proliferate	retained	net decrease in cell viability						
CO[C@]1(C(=O)N[C@@H](C)c2ccc(-n3cc(F)cn3)nc2)CC[C@H](c2nc(C)cc(Nc3cc(C)[nH]n3)n2)CC1 [Compound 1, (1S,4R)—N—((S)-1-(6-(4-fluoro-1H-pyrazol-1-yl)pyridine-3-yl)ethyl)-1-methoxy-4-(4-methyl-6-((5-methyl-1H-pyrazol-3-yl)amino)pyrimidin-2-yl)cyclohexanecarboxamide]									dose-dependent antitumor efficacy	durable clinical responses	without notable off-target toxicity	suppressed	did not decrease	low nanomolar potency
